Earlier results, collected in US7129355B2, “Process for preparing kifunensine intermediate and kifunensine therefrom” (Industrial Research Limited, priority 2002, dated 2006).

System: plant mannosidase II
Settings: Elbein et al., J. Biol. Chem. 265, 15599, 1990

- activity toward plant mannosidase II: inactive
Compound: O=C1N[C@@H]2[C@@H](O)[C@@H](O)[C@H](O)[C@@H](CO)N2C1=O [Kifunensine]
